In patent publication US9050344B2, “Therapeutic compounds” (Gilead Sciences, Inc., priority 2013, dated 2015):

Tests used:
MT-4 cells = experiment: Test B: Cytotoxicity Assay (protocol of Test A, uninfected cells); format: cell-based; conditions: uninfected MT-4 cells, 5 days, CellTiter-Glo
Procedure: (§1) Test B: Cytotoxicity Assay Compound cytotoxicity and the corresponding CC50 values was determined using the same protocol as described in the antiviral assay (Test A) except that uninfected cells were used.

[1] = as above; format: cell-based; conditions: human, uninfected MT-4 cells, CellTiter-Glo
Procedure: as §1

HIV-IIIb = experiment: Test A: Antiviral Assay in MT4 Cells; format: cell-based, HIV-1; conditions: Human immunodeficiency virus 1, IIIB, MT4, 120 h, read-out: % inhibition at 3 μM
Procedure: Test A: Antiviral Assay in MT4 Cells
For the antiviral assay, 40 μL of 1× test concentration of 3-fold serially diluted compound in culture medium with 10% FBS was added to each well of a 384-well plate (10 concentrations) in quadruplicate. MT-4 cells were next mixed with HIV-IIIb at an m.o.i of 0.003 for 1 hour, after which time 35 μL of virus/cell mixture (2000 cells) was immediately added to each well containing 40 μL of diluted compound. The plates were then incubated at 37° C. for 5 days. After 5 days of incubation, 25 μl of 2× concentrated CellTiter-Glo™ Reagent (catalog #G7571, Promega Biosciences, Inc., Madison, Wis.) was added to each well containing MT-4 cells. Cell lysis was carried out by incubating at room temperature for 10 min and then chemiluminescence was read.

CC(=O)Oc1ccc(-c2ccc(F)c(C(N)=O)c2)c([C@H](Cc2cc(F)cc(F)c2)NC(=O)Cn2nc(C(F)F)c3c2C(F)(F)CCC3(F)F)n1 [Compound 20B, (S)-5-(3-carbamoyl-4-fluorophenyl)-6-(1-(2-(3-(difluoromethyl)-4,4,7,7-tetrafluoro-4,5,6,7-tetrahydro-1H-indazol-1-yl)acetamido)-2-(3,5-difluorophenyl)ethyl)pyridin-2-yl acetate]
CC50 (MT-4 cells): > 53.2 µM

CN(CCO)c1ccc(-c2ccc(Cl)c3c(NS(C)(=O)=O)nn(C)c23)c([C@H](Cc2cc(F)cc(F)c2)NC(=O)Cn2nc(C(F)F)c3c2C(F)(F)[C@@H]2C[C@H]32)n1 [Compound 57G, N—((S)-1-(3-(4-chloro-1-methyl-3-(methylsulfonamido)-1H-indazol-7-yl)-6-((2-hydroxyethyl)(methyl)amino)pyridin-2-yl)-2-(3,5-difluorophenyl)ethyl)-2-((3bS,4aR)-3-(difluoromethyl)-5,5-difluoro-3b,4,4a,5-tetrahydro-1H-cyclopropa[3,4]cyclopenta[1,2-c]pyrazol-1-yl)acetamide]
CC50 at 5 days [1]: 29.5 µM | inhibition at 3 µM (HIV-IIIb): 81%

CN(CCO)c1ccc(-c2ccc(Cl)c3c(NS(C)(=O)=O)nn(C)c23)c([C@H](Cc2cc(F)cc(F)c2)NC(=O)Cn2nc(C(F)(F)F)c3c2C(F)(F)[C@@H]2C[C@H]32)n1 [Compound 58, N—((S)-1-(3-(4-chloro-1-methyl-3-(methylsulfonamido)-1H-indazol-7-yl)-6-((2-hydroxyethyl)(methyl)amino)pyridin-2-yl)-2-(3,5-difluorophenyl)ethyl)-2-((3bS,4aR)-5,5-difluoro-3-(trifluoromethyl)-3b,4,4a,5-tetrahydro-1H-cyclopropa[3,4]cyclopenta[1,2-c]pyrazol-1-yl)acetamide]
CC50 at 5 days [1]: 12.8 µM | inhibition at 3 µM (HIV-IIIb): 86%

Cn1nc(NS(C)(=O)=O)c2c(Cl)ccc(-c3nc(N)cnc3C(Cc3cc(F)cc(F)c3)NC(=O)Cn3nc(C(F)F)c4c3C(F)(F)[C@@H]3C[C@H]43)c21 (stereo partly drawn) [Compound 59D, N-(1-(5-amino-3-(4-chloro-1-methyl-3-(methylsulfonamido)-1H-indazol-7-yl)pyrazin-2-yl)-2-(3,5-difluorophenyl)ethyl)-2-((3bS,4aR)-3-(difluoromethyl)-5,5-difluoro-3b,4,4a,5-tetrahydro-1H-cyclopropa[3,4]cyclopenta[1,2-c]pyrazol-1-yl)acetamide]
CC50 at 5 days [1]: > 46.8 µM | inhibition at 3 µM (HIV-IIIb): 85%

CN1CCN(c2ccc(-c3ccc(Cl)c4c(NS(C)(=O)=O)nn(C)c34)c([C@H](Cc3cc(F)cc(F)c3)NC(=O)Cn3nc(C(F)(F)F)c4c3C(F)(F)[C@@H]3C[C@H]43)n2)CC1 [Compound 60C, N—((S)-1-(3-(4-chloro-1-methyl-3-(methylsulfonamido)-1H-indazol-7-yl)-6-(4-methylpiperazin-1-yl)pyridin-2-yl)-2-(3,5-difluorophenyl)ethyl)-2-((3bS,4aR)-5,5-difluoro-3-(trifluoromethyl)-3b,4,4a,5-tetrahydro-1H-cyclopropa[3,4]cyclopenta[1,2-c]pyrazol-1-yl)acetamide]
CC50 at 5 days [1]: 9.11 µM | inhibition at 3 µM (HIV-IIIb): 90%

Cn1nc(NS(C)(=O)=O)c2cccc(-c3nc(N)cnc3C(Cc3cc(F)cc(F)c3)NC(=O)Cn3nc(C(F)F)c4c3C(F)(F)[C@@H]3C[C@H]43)c21 (stereo partly drawn) [Compound 61, N-(1-(5-amino-3-(1-methyl-3-(methylsulfonamido)-1H-indazol-7-yl)pyrazin-2-yl)-2-(3,5-difluorophenyl)ethyl)-2-((3bS,4aR)-3-(difluoromethyl)-5,5-difluoro-3b,4,4a,5-tetrahydro-1H-cyclopropa[3,4]cyclopenta[1,2-c]pyrazol-1-yl)acetamide]
CC50 at 5 days [1]: > 53.2 µM | inhibition at 3 µM (HIV-IIIb): 75%
